One test deals with T1, KRAS WT (Homo sapiens, UniProt P01116).
T1 construct: made in house; host or cells: E. coli BL21 (DE3)
Kind of test: HTRF assay, interaction of GST-tagged K-Ras with His-tagged hSOS1 (KRAS wildtype). Format: biochemical. The note with it: <500 nM, read-out: Inhibition of KRAS WT (IC50). In a few lines: (§1)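 GST-K-Ras (G12S or WT) with anti-GST-Eu donor mixed with His-hSOS1 and anti-6His-XL665 acceptor in ~5 mM HEPES pH 7.4, 150 mM NaCl, 1 mM DTT, 0.05% BSA, 0.0025% Igepal. After ~10 min or longer, HTRF 665/620 nm ratio read.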

Another test concerns the target T2, KRAS G12S (Homo sapiens, UniProt P01116, G12S).
T2 construct: made in house; host or cells: E. coli BL21 (DE3)
Kind of test: HTRF assay, interaction of GST-tagged K-Ras with His-tagged hSOS1 (KRAS G12S). It counts as biochemical. The note with it: <500 nM, read-out: Inhibition of KRAS G12S (IC50). In a few lines:
as §1
Background: Time-resolved FRET reads energy transfer from a long-lived donor to a nearby acceptor.

Some results are limits rather than exact numbers.

T1 sequence (P01116 1-188 isoform P01116-2): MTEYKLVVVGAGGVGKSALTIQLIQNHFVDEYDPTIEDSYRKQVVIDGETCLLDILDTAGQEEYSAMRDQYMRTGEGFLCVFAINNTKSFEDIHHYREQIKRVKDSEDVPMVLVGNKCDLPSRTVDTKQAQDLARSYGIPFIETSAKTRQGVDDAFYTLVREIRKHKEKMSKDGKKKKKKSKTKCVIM
T2 sequence (P01116 1-188 isoform P01116-2 G12S): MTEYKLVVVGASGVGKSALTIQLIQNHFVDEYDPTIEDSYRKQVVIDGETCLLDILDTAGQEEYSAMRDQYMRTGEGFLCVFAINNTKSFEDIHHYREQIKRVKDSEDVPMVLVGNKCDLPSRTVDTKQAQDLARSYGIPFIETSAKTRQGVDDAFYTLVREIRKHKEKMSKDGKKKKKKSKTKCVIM

`Cc1cn(C(=O)N2CC[C@@H](N3C[C@H](C)Oc4nc(-c5cc(N)c(F)c(C)c5C(F)(F)F)c(F)c5nc(OC[C@@]67CCCN6C[C@H](F)C7)nc3c45)[C@H]2C)c(C)n1` [Compound 430, ((2R,3R)-3-((S)-5-(5-amino-4-fluoro-3-methyl-2-(trifluoromethyl)phenyl)-4-fluoro-2-(((2R,7aS)-2-fluorotetrahydro-1H-pyrrolizin-7a(5H)-yl)methoxy)-8-methyl-8,9-dihydro-10H-7-oxa-1,3,6,10-tetraazacyclohepta [de]naphthalen-10-yl)-2-methylpyrrolidin-1-yl)(2,4-dimethyl-1H-imidazol-1-yl)methanone]: the IC50 at KRAS WT and at KRAS G12S was < 500 nM throughout.

For the molecule `C[C@H](O)[C@H]1COc2c(Cl)c(-c3ccc(F)c4sc(N)c(C#N)c34)c(F)c3nc(OC[C@@]45CCCN4C[C@H](F)C5)nc(c23)N1C1CC(N(C)C(=O)n2ccnc2)C1` (stereo partly drawn) [Compound 428, N-(3-((5R)-9-(2-amino-3-cyano-7-fluorobenzo[b]thiophen-4-yl)-8-chloro-10-fluoro-2-(((2R,7aS)-2-fluorotetrahydro-1H-pyrrolizin-7a(5H)-yl)methoxy)-5-((S)-1-hydroxyethyl)-5,6-dihydro-4H-[1,4]oxazepino [5,6,7-de]quinazolin-4-yl)cyclobutyl)-N-methyl-1H-imidazole-1-carboxamide], the IC50 on KRAS WT and at KRAS G12S was < 500 nM in each case.

In the case of `C[C@H](O)[C@H]1COc2c(Cl)c(-c3ccc(F)c4sc(N)c(C#N)c34)c(F)c3nc(OC[C@@]45CCCN4C[C@H](F)C5)nc(c23)N1CC1CCN(C(=O)n2ccnc2)C1` (stereo partly drawn) [Compound 419, 4-((5R)-4-((1-(1H-imidazole-1-carbonyl)pyrrolidin-3-yl)methyl)-8-chloro-10-fluoro-2-(((2R,7aS)-2-fluorotetrahydro-1H-pyrrolizin-7a(5H)-yl)methoxy)-5-((S)-1-hydroxyethyl)-5,6-dihydro-4H-[1,4]oxazepino [5,6,7-de]quinazolin-9-yl)-2-amino-7-fluorobenzo[b] thiophene-3-carbonitrile], the 50% inhibitory concentration (IC50) on KRAS WT and on KRAS G12S was < 500 nM throughout.

Consider `C[C@@H]1[C@H](N2C[C@H](C)Oc3c(Cl)c(-c4ccc(F)c5sc(N)c(C#N)c45)c(F)c4nc(OC[C@@]56CCCN5C[C@H](F)C6)nc2c34)CCN1C(=O)n1cnc(Cl)n1` (atropisomer, axis not shown; (aS)) [Compound 407, 2-amino-4-((6S,9R)-8-chloro-4-((2R,3R)-1-(3-chloro-1H-1,2,4-triazole-1-carbonyl)-2-methylpyrrolidin-3-yl)-10-fluoro-2-(((2R,7aS)-2-fluorotetrahydro-1H-pyrrolizin-7a (5H)-yl)methoxy)-6-methyl-5,6-dihydro-4H-[1,4]oxazepino[5,6,7-de]quinazolin-9-yl)-7-fluorobenzo[b]thiophene-3-carbonitrile], for which the half-maximal inhibitory concentration (IC50) on KRAS WT and at KRAS G12S was < 500 nM each time.

In the case of `C[C@H](O)[C@H]1COc2c(Cl)c(-c3ccc(F)c4sc(N)c(C#N)c34)c(F)c3nc(OC[C@@]45CCCN4C[C@H](F)C5)nc(c23)N1CC1CCCN1C(=O)n1ccnc1` (stereo partly drawn) [Compound 495, 4-((5R)-4-((1-(1H-imidazole-1-carbonyl)pyrrolidin-2-yl)methyl)-8-chloro-10-fluoro-2-(((2R,7aS)-2-fluorotetrahydro-1H-pyrrolizin-7a(5H)-yl)methoxy)-5-((S)-1-hydroxyethyl)-5,6-dihydro-4H-[1,4]oxazepino [5,6,7-de]quinazolin-9-yl)-2-amino-7-fluorobenzo[b] thiophene-3-carbonitrile], the IC50 on KRAS WT and at KRAS G12S was < 500 nM in each case.

What is called IC50 is the midpoint of a concentration-inhibition curve.

These data come from patent US12606572B2, “Substituted heterocycles and uses thereof” (Kumquat Biosciences Inc., priority 2023, dated 2026).
